Values after ≈ are worked out from the molar mass of the structure shown.
What was measured:
Her2Neu = assay: Inhibition of cancer cell growth as measured by cell number (Sulforhodamine B); type: cell-based; details: 48 hours exposure; 3T3 line transfected with Her2 receptor kinase
Method: (§1) Human tumor cell lines were plated in 96-well plates (250 µl/well, 1-6 x 10^4 cells/ml) in RPMI 1640 medium, containing 5% FBS (Fetal Bovine Serum). […] After 48 hours exposure to test compounds, cells were fixed with trichloroacetic acid, and stained with Sulforhodamine B. After washing with trichloroacetic acid, bound dye was solubilized in 10 mM Tris base and optical density was determined using a plate reader. Under conditions of the assay the optical density is proportional to the number of cells in the well. IC50s (concentrations causing 50% inhibition of cell growth) were determined from the growth inhibition plots. The test procedure is described in details by Philip Skehan et. al, J.Natl. Canc. Inst., 82, 1107-1112 (1990). […] Information about some of the cell lines used in these test procedures is available from the American Type Tissue Collection: Cell Lines and Hybridomas, 1994 Reference Guide, 8th Edition. The Her2Neu cell line is a 3T3 line that has been transfected with Her2 receptor kinase.

MDA435 = assay: as above; type: cell-based; details: Homo sapiens, 48 hours exposure
Method: as §1

A431 = assay: as above; type: cell-based; details: Homo sapiens, A-431; 48 hours exposure
Method: as §1

SW620 = assay: as above; type: cell-based; details: Homo sapiens, SW-620; 48 hours exposure
Method: as §1

3T3 = assay: as above; type: cell-based; details: Mus musculus, NIH3T3; 48 hours exposure
Method: as §1

[1] = biological target: T1, Epidermal Growth Factor Receptor Kinase (EGF-R) (Homo sapiens, UniProt P00533); assay: Inhibition of Epidermal Growth Factor Receptor Kinase (EGF-R) using recombinant enzyme; type: biochemical; details: for inhibition at 0.5 µM: 0.5 µM concentration of test compound; for IC50: recombinant enzyme
T1 construct: containing the EGFR cDNA encoding amino acids 645 - 1186 preceded by Met-Ala-(His)6; Met-Ala-(His)6 (N); made in house; host or cells: Sf9 insect cells (baculovirus vHcEGFR52)
Method: Representative test compounds were evaluated for their ability to inhibit the phosphorylation of the tyrosine residue of a peptide substrate catalyzed by the enzyme epidermal growth factor receptor kinase. The peptide substrate (RR-SRC) has the sequence arg-arg-leu-ile-glu-asp-ala-glu-tyr-ala-ala-arg-gly. The enzyme used in this assay is the His-tagged cytoplasmic domain of EGFR. A recombinant baculovirus (vHcEGFR52) was constructed containing the EGFR cDNA encoding amino acids 645 - 1186 preceded by Met-Ala-(His)6. Sf9 cells in 100 mm plates were infected at an moi of 10 pfu/cell and cells were harvested 48 hours post infection. A cytoplasmic extract was prepared using 1% Triton X-100 and applied to Ni-NTA column. After washing the column with 20 mM imidazole, HcEGFR was eluted with 250 mM imidazole (in 50 mM Na2HPO4, pH 8.0, 300 mM NaCl). Fractions collected were dialyzed against 10 mM HEPES, pH 7.0, 50 mM NaCl, 10% glycerol, 1µg/mL antipain and leupeptin and 0.1 mM Pefabloc SC. The protein was frozen in dry ice/methanol and stored -70° C.
Test compounds were made into 10 mg/mL stock solutions in 100% dimethylsulfoxide (DMSO). Prior to experiment, stock solutions were diluted to 500 µM with 100% DMSO and then serially diluted to the desired concentration with HEPES buffer (30 mM HEPES pH 7.4).
For the enzyme reaction, 10 µL of each inhibitor (at various concentrations) were added to each well of a 96-well plate. To this was added 3 µL of enzyme (1:10 dilution in 10mM HEPES, pH 7.4 for final conc. of 1:120). This was allowed to sit for 10 minutes on ice and was followed by the addition of 5 µl peptide (80 uM final conc.), 10µl of 4X Buffer (Table A), 0.25 µL ^33P-ATP and 12 µL H2O. The reaction was allowed to run for 90 minutes at room temperature and was followed by spotting the entire volume on to precut P81 filter papers. The filter discs were washed 2X with 0.5% phosphoric acid and radioactivity was measured using a liquid scintillation counter. Table A
The inhibition data for representative compounds of the invention are shown below in TABLE 1. The IC50 is the concentration of test compound needed to reduce the total amount of phosphorylated substrate by 50%. The % inhibition of the test compound was determined for at least three different concentrations and the IC50 value was evaluated from the dose response curve. […] CPM(control) is in units of counts per minute and was a number expressing the amount of radiolabeled ATP (γ-^33P) incorporated into the RR-SRC peptide substrate by the enzyme after 90 minutes at room temperature in the absence of test compound as measured by liquid scintillation counting. The CPM values were corrected for the background counts produced by ATP in the absence of the enzymatic reaction. Where it was possible to determine an IC50 value, this is reported in TABLE 1 otherwise the % inhibition at 0.5 µM concentration of test compound is shown in TABLE 1.

[2] = system: Human Epidermoid Tumors (A431); assay: In vivo inhibition of the growth of human epidermoid tumors (A431); design: species or system BALB/c nu/nu female mice; details: for %T/C / RTG Day 7 / RTG Day 14 / RTG Day 21: days 1 through 10; for S/T: # of Survivors/# of Treated on Day +21
Method: BALB/c nu/nu female mice (Charles River, Wilmington, MA) were used in the in vivo standard pharmacological test procedures. Human epidermoid carcinoma cells A-431 (American Type Culture Collection, Rockville, Maryland # CRL-155) were grown in vitro as described above. A unit of 5 X 10^6 cells were injected subcutaneously into mice. When tumors attained a mass of between 100 and 150 mg, the mice were randomized into treatment groups (day zero). Mice were treated orally (PO) once a day on days 1 through 10 post staging with doses of either 40, 20, 10, 3 or 1 mg/kg/dose of the compound to be evaluated in 0.2% Klucel. Control animals received no drug. Tumor mass was determined every 7 days [(length X width^2)/2] for 28 days post staging. Relative tumor growth (Mean tumor mass on day 7, 14, and 21 divided by the mean tumor mass on day zero) is determined for each treatment group. The %T/C (Tumor/Control) is determined by dividing the relative tumor growth of the treated group by the relative tumor growth of the placebo group and multiplying by 100. A compound is considered to be active if the %T/C is found to be […].

c-Met = biological target: T2, c-Met (Homo sapiens, UniProt P08581); assay: DELFIA assay for c-Met receptor kinase inhibitors; type: biochemical
T2 construct: The cytoplasmic domain of c-Met was generated by reverse transcriptase-polymerase chain reaction; His tag (from pFastBac-HTc vector; purified on Ni-NTA/Talon); made in house; host or cells: Sf9 insect cells (baculovirus)
Method: The c-Met kinase assay was performed as a DELFIA (dissociation enchanced lanthanide fluorometric immunoassay), an ELISA-like protocol based upon time-resolved fluorometry as described previously [Braunwalder, A. F., Yarwood, D.R., Sills, M.A., and Lipson, K.E., Anal. Biochem. 238, 159-164 (1996)]. The protocol was adopted for the screening of inhibitors of the kinase activity of recombinant c-Met. [Loganzo, F., and. Hardy, C., American Biotechnology Laboratory 16(13), 26-28 (1998)]. The cytoplasmic domain of c-Met was generated by reverse transcriptase-polymerase chain reaction using RNA isolated from human mammary epithelial cells as template, cloned into the pFastBac-HTc vector (Life Technologies) and protein expressed in Sf9 insect cells by baculovirus infection. Protein was purified by imidazole elution from Ni-NTA resin (Invitrogen, Carlsbad, CA) or Talon resin (Clontech, Palo Alto, CA). Various conditions were evaluated for the kinase screening protocol and screening was accomplished with the following method. Polystyrene Maxisorp plates (Nunc) were pre-coated for 1 hour to overnight at room temperature with 5 µg/ml poly(Glu4-Tyr) diluted in Tris-buffered saline (TBS). Plates were washed 3X with TBS. c-Met protein preparation was diluted 1:80 into 0.1% BSA/ 4 mM HEPES. A master mix was prepared consisting of: 1 volume of diluted c-Met, 1 volume of 5X buffer (20 mM HEPES, pH 7.4; 2 mM MnCl2; 100 µM Na3VO4; 1 mM DTT), 0.9 volume of water. Master mix (29 µl) was added to the wells of peptide-coated microtiter plates. For assays where c-Met autophosphorylation was evaluated, plates were uncoated and c-Met was diluted into 4 mM HEPES at 1:40 without BSA. Compounds (1 µl) at various dilutions (1 mM to 0.1 µM) prepared in DMSO were added and mixed well with an automatic piptettor. After incubation 20 minutes at room temperature, the reaction was initiated with 20 µl of 62.5 µM ATP/ 50 mM MgCl2 (final 25 µM ATP/ 20 mM MgCl2 in assay). Reactions were incubated 45 minutes at room temperature. Plates were then washed 3X with 100 µl each of DELFIA wash buffer (Wallac). Antibody binding was performed by adding 75 µl of Europium-conjugated anti-phosphotyrosine diluted 1:2000 in Assay Buffer (Wallac) for 1 hour at room temperature. Plates were washed 3X with DELFIA wash buffer. Detection was done by addition of 100 µl of Enhancement Solution (Wallac). After 30 minutes, plates were read in a Wallac VICTOR-2 time-resolved fluorometer. Inhibition data was reported as europium counts for compound treated wells normalized to control counts. IC50 values were obtained by using log doses of compound and calculated using Data Analysis Toolbox software, version 1.0.2 (MDL Information Systems, Inc.).

SKBR3 = assay: Inhibition of cancer cell growth as measured by cell number (Sulforhodamine B); type: cell-based; details: Homo sapiens, SK-BR-3; 48 hours exposure
Method: as §1

T2 sequence (P08581 956-1390 limits assumed): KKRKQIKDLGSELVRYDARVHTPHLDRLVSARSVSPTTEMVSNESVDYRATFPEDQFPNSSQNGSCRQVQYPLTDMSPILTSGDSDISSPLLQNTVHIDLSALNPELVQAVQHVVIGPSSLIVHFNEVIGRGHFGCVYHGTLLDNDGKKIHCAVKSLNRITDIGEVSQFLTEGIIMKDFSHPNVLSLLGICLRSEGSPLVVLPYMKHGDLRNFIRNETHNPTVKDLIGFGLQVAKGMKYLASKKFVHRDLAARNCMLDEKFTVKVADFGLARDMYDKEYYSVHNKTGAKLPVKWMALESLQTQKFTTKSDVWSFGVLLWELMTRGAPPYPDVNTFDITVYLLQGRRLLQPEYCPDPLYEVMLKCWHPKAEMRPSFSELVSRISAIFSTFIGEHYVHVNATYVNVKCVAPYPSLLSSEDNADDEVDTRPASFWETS
T1 sequence (P00533 669-1210): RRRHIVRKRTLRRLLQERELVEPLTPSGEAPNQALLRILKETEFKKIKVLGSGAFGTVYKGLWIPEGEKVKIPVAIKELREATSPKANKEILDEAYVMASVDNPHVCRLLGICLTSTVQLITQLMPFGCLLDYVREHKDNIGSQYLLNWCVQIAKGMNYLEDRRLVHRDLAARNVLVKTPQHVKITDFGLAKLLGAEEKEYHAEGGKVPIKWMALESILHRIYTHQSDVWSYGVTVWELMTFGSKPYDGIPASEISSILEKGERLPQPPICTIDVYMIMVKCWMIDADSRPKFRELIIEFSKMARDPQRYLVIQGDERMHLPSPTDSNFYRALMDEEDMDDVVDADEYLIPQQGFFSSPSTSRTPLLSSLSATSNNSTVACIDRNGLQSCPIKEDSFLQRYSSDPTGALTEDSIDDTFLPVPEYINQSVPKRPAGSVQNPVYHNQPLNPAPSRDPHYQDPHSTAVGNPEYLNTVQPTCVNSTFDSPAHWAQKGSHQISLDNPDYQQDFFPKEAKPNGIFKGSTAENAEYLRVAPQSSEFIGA

## CN(C)C/C=C/C(=O)N1CCOc2cc3ncc(C#N)c(Nc4ccc(F)c(Cl)c4)c3cc21 [Example 9, 9-(3-Chloro-4-fluoroanilino)-1-[(2E)-4-(dimethylamino)-2-butenoyl]-2,3-dihydro-1H-[1,4]oxazino[3,2-g]quinoline-8-carbonitrile]
Her2Neu
  IC50: 0.15 µg/mL (≈ 0.323 µM)
MDA435
  IC50: 0.24 µg/mL (≈ 0.515 µM)
A431
  IC50: 0.108 µg/mL (≈ 0.232 µM)
SW620
  IC50: 0.165 µg/mL (≈ 0.354 µM)
3T3
  IC50: 0.169 µg/mL (≈ 0.364 µM)
[1]
  inhibition at 0.5 µM: 56.5%
  IC50: 0.17 µM
[2]; 1 mg/kg/dose PO, Day 7
  %T/C: 103%
  RTG Day 7: 4.66
[2]; 1 mg/kg/dose PO, Day 14
  %T/C: 73%
  RTG Day 14: 8.11
[2]; 1 mg/kg/dose PO, Day 21
  %T/C: 76%
  RTG Day 21: 13.23
[2]; 1 mg/kg/dose PO
  S/T: 5/5
[2]; 3 mg/kg/dose PO, Day 7
  %T/C: 104%
  RTG Day 7: 4.76
[2]; 3 mg/kg/dose PO, Day 14
  %T/C: 107%
  RTG Day 14: 11.79
[2]; 3 mg/kg/dose PO, Day 21
  %T/C: 137%
  RTG Day 21: 23.77
[2]; 3 mg/kg/dose PO
  S/T: 5/5
[2]; 10 mg/kg/dose PO, Day 7
  %T/C: 105%
  RTG Day 7: 4.81
[2]; 10 mg/kg/dose PO, Day 14
  %T/C: 87%
  RTG Day 14: 9.66
[2]; 10 mg/kg/dose PO, Day 21
  %T/C: 64%
  RTG Day 21: 11.49
[2]; 10 mg/kg/dose PO
  S/T: 5/5
[2]; 20 mg/kg/dose PO, Day 7
  %T/C: 118%
  RTG Day 7: 5.40
[2]; 20 mg/kg/dose PO, Day 14
  %T/C: 96%
  RTG Day 14: 10.56
[2]; 20 mg/kg/dose PO, Day 21
  %T/C: 84%
  RTG Day 21: 14.56
[2]; 20 mg/kg/dose PO
  S/T: 5/5
[2]; 40 mg/kg/dose PO, Day 7
  %T/C: 75%
  RTG Day 7: 3.40
[2]; 40 mg/kg/dose PO, Day 14
  %T/C: 53%
  RTG Day 14: 5.93
[2]; 40 mg/kg/dose PO, Day 21
  %T/C: 41%
  RTG Day 21: 7.15
[2]; 40 mg/kg/dose PO
  S/T: 5/5
[2]; summary statement in words
  inhibition of tumor growth in vivo: effective inhibitor of tumor growth in vivo

## CN(C)CCCC(=O)N1CCOc2cc3ncc(C#N)c(Nc4ccc(F)c(Cl)c4)c3cc21 [Example 10]
c-Met
  inhibition at 10 µg/mL: 50%
Her2Neu
  IC50: > 5 µg/mL
SKBR3
  IC50: 1.07 µg/mL (≈ 2.28 µM)
MDA435
  IC50: 2.72 µg/mL (≈ 5.81 µM)
A431
  IC50: 1.01 µg/mL (≈ 2.15 µM)
SW620
  IC50: 1.89 µg/mL (≈ 4.04 µM)
3T3
  IC50: 1.99 µg/mL (≈ 4.25 µM)
[1]
  inhibition at 0.5 µM: 57.8%

## N#Cc1cnc2cc3c(cc2c1Nc1ccc(F)c(Cl)c1)N(CCCCCl)CCO3 [Example 11, 1-(4-Chlorobutyl)-9-(3-chloro-4-fluoroanilino)-2,3-dihydro-1H-[1,4]oxazino[3,2-g]quinoline-8-carbonitrile]
c-Met
  inhibition at 10 µg/mL: 42%
Her2Neu
  IC50: > 5 µg/mL
SKBR3
  IC50: 2.53 µg/mL (≈ 5.68 µM)
MDA435
  IC50: > 5 µg/mL
A431
  IC50: 1.9 µg/mL (≈ 4.27 µM)
SW620
  IC50: > 5 µg/mL
3T3
  IC50: 3.89 µg/mL (≈ 8.74 µM)
[1]
  inhibition at 0.5 µM: 73%
  IC50: 0.001 µM

## CN(C)CCCCN1CCOc2cc3ncc(C#N)c(Nc4ccc(F)c(Cl)c4)c3cc21 [Example 12, 9-(3-Chloro-4-fluoroanilino)-1-[4-(dimethylamino)butyl]-2,3-dihydro-1H-[1,4]oxazino[3,2-g]quinoline-8-carbonitrile]
c-Met
  inhibition at 10 µg/mL: 66%
Her2Neu
  IC50: > 5 µg/mL
SKBR3
  IC50: 0.649 µg/mL (≈ 1.43 µM)
MDA435
  IC50: 2.36 µg/mL (≈ 5.2 µM)
A431
  IC50: 0.47 µg/mL (≈ 1.04 µM)
SW620
  IC50: 1.5 µg/mL (≈ 3.3 µM)
3T3
  IC50: 1.49 µg/mL (≈ 3.28 µM)
[1]
  inhibition at 0.5 µM: 53.5%

Source: patent EP1268487B1, “TRICYCLIC PROTEIN KINASE INHIBITORS” (Wyeth, priority 2000, dated 2001)
